Experimental data reported in patent publication US20040110177A1, “Method for identifying functional nucleic acids” (priority 2003, published 2004).

Key:
Type in all cases: cell-based, human
[1] = tested on: clone 14 (apoptosis-resistant Hela S3 clone); test: Anti-Fas (CH-11) induced apoptosis with kinase inhibitors, FACS sub-G1 nuclei, clone 14; conditions: clone 14, 100 ng/ml CH-11, no FCS; for change in number of apoptotic cells / apoptosis rate (in words): AG 1295 1 μM, PD 98059 25 μM; for increase in apoptosis: SU 5402 10 μM, SB 203580 10 μM
Description: (§1) Cells were grown in Ham's F12 medium without FCS and treated with 100 ng/ml anti-Fas antibody CH-11 with and without inhibitors. Apoptosis was measured by FACS analysis as described in the examples. SU 5402: 10 μM, AG 1295: 1 μM, SB 203580: 10 μM, PD 98059: 25 μM.
The cervix carcinoma cell line Hela S3 (ATCC CCL-2.2) was plated on 10 cm cell culture dishes (10^5 cells) in Ham's F12 growth medium containing 10% FCS. On the next day the medium was exchanged against medium without FCS supplemented with 100 ng/ml apoptosis activating anti-Fas antibody CH-11 (Coulter Immunotech). After 3 days when most of the cells were dead, the medium was exchanged once more against the medium containing 10% FCS without antibody. The surviving cells were clonally cultivated for 3 weeks. The clones were picked and expanded.
(§2) 50000 cells per well obtained from the parental cell line Hela S3 or from the clones, respectively, were grown in a 12 well cell culture dish for 2 days in 2 ml Ham's F12 medium containing 10% FCS. On the third day the cells were washed twice with 1 ml Ham's F12 medium and then the medium exchanged against 1 ml Ham's F12 medium. On the next day the medium was supplemented with the respective inhibitors and 100 to 200 ng/ml CH-11. On the next day the medium was decanted and transferred to an Eppendorf tube. The cells were washed once with 200 μl PBS, the PBS was transferred to the respective Eppendorf tube. Then the remaining cells were also transferred to the respective Eppendorf tube after treatment with EDTA/trypsin in PBS. The cells were pelleted by centrifugation, suspended in 500 μl hypotonic buffer (0.1% sodium citrate, 0.1% Triton-X100, 20 μg/ml propidium iodide) and incubated for 2-24 hours at 4° C. The resutling cell nuclei were analyzed by FACS.
(§3) The propidium iodide fluorescence of single nuclei was determined using a FACSCalibur (Becton Dickinson) cytometer. The forward scatter light (FSC) and the side scatter light (SSC) were recorded simultaneously. The FSC peak was adjusted at channel 500 in a 1024 channel linear scale and the red fluorescence peak at channel 200 of a logarithmic scale. The FSC cut-off value was determined by gating to 95% of the greatest nuclei of a negative control without supplements. Nuclei were classified as apoptotic when a subdiploid signal between the G1/G0 peak and channel 10 was present.

[2] = tested on: clone 20 (apoptosis-resistant Hela S3 clone); test: Anti-Fas (CH-11) induced apoptosis with kinase inhibitors, FACS sub-G1 nuclei, clone 20; conditions: clone 20, 100 ng/ml CH-11, no FCS; SB 203580 10 μM, PD 98059 25 μM
Description: as §1
(§4) The cervix carcinoma cell line Hela S3 (ATCC CCL-2.2) was plated on 10 cm cell culture dishes (10^5 cells) in Ham's F12 growth medium containing 10% FCS. On the next day the medium was exchanged against medium without FCS supplemented with 100 ng/ml apoptosis activating anti-Fas antibody CH-11 (Coulter Immunotech). […]
(§5) 50000 cells per well obtained from the parental cell line Hela S3 or from the clones, respectively, were grown in a 12 well cell culture dish for 2 days in 2 ml Ham's F12 medium containing 10% FCS. […] The resutling cell nuclei were analyzed by FACS.
as §3, with “Nuclei were classified as apoptotic when a subdiploid signal between the G1/G0 peak and channel 10 was present.” left out

[3] = tested on: clone 5 (apoptosis-resistant Hela S3 clone); test: Anti-Fas (CH-11) induced apoptosis with kinase inhibitors, FACS sub-G1 nuclei, clone 5; conditions: clone 5, CH-11; SU 5402, AG 1295
Description: as §1, §4, §5
as §3, with “Nuclei were classified as apoptotic when a subdiploid signal between the G1/G0 peak and channel 10 was present.” left out

Hela S3 = test: Anti-Fas (CH-11) induced apoptosis with kinase inhibitors, FACS sub-G1 nuclei, Hela S3; conditions: Hela S3, 100 ng/ml CH-11, no FCS; SU 5402 10 μM, AG 1295 1 μM, SB 203580 10 μM
Description: as §1, §2, §3

SMILES | change in number of apoptotic cells / apoptosis rate (in words) [1] | change in apoptosis rate (in words) [2] | increase in apoptosis [1] | increase in apoptosis [3] | increase in apoptosis (Hela S3)
COc1cccc(-c2cc(=O)c3ccccc3o2)c1N [PD 98059] | doubling of the apoptosis rate | triples the apoptosis rate | – | – | –
Cc1c[nH]c(/C=C2\C(=O)Nc3ccccc32)c1CCC(=O)O [SU 5402] | – | – | ~300% | about 50% | about 50%
Cc1cc2ncc(-c3ccccc3)nc2cc1C [AG 1295] | nearly in a doubling of the number of apoptotic cells | – | – | 30% | about 30%
C[S+]([O-])c1ccc(-c2nc(-c3ccncc3)c(-c3ccc(F)cc3)[nH]2)cc1 (centres unmarked) [SB 203580] | – | slight increase of apoptosis | 60% | – | 25%
